The record followed here is PubChem BioAssay (NCI).

Test systems include A498 renal; COLO 205 colon; HT29 colon; K-562 leukemia; NCI-H522 lung; OVCAR-4 ovarian; SF-268 CNS; SF-295 CNS; SR leukemia; U251 CNS.
Holding throughout (test): growth of human tumour cells (NCI), 48 h

Each structure is given as a SMILES string. Where “and” joins values, the source holds several entries; their conditions need not be identical. Equal values may be shown once.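 Interpolation was linear, between the two tested concentrations surrounding the appropriate level; five concentrations were tested over 48 hours in 96-well plates. Here, GI50 denotes the concentration required for 50% inhibition of growth. TGI denotes the concentration required for complete inhibition of growth.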

Consider `c1ccc(COc2ccc(Nc3ncnc4ccc(-c5ccco5)cc34)cc2)cc1`, for which the GI50 in the test with A498 renal was 5.39 µM; in the test with COLO 205 colon, 7.14 µM; with HT29 colon, 4.52 µM; with K-562 leukemia, 9.74 µM; in the test with NCI-H522 lung, 4.84 µM; in the test on OVCAR-4 ovarian, 4.69 µM. Besides, the GI50 in the test with SF-268 CNS was 8.29 µM; in the test with SF-295 CNS, 8.62 µM; in the test with SR leukemia, 6.7 µM; with U251 CNS, 6.99 µM. Further, the TGI with A498 renal is > 21.6 µM; in the test with COLO 205 colon, 17.7 µM; in the test on HT29 colon, 16.1 µM; with K-562 leukemia, > 25 µM; in the test on NCI-H522 lung, 15.1 µM; in the test on OVCAR-4 ovarian, 17.1 µM. The TGI in the test with SF-268 CNS, with SF-295 CNS, in the test with SR leukemia and in the test on U251 CNS was > 25 µM in each case.
Take `Cn1cc(-c2ccc3c(c2)ncn3-c2ccc(CC(=O)Nc3cc(C(C)(C)C)on3)cc2)cn1`: the GI50 with A498 renal is 0.122 µM; with COLO 205 colon it was 1.95 µM; in the test with HT29 colon, 2.6 µM; in the test on K-562 leukemia, 0.0284 µM; in the test with NCI-H522 lung, 2.27 µM; with OVCAR-4 ovarian, 0.501 µM. Moreover, the GI50 is 0.674 µM in the test with SF-268 CNS, 1.26 µM in the test with SF-295 CNS, 1.69 µM in the test with SR leukemia and 2.93 µM with U251 CNS. Besides, the TGI in the test on A498 renal is 0.461 µM; in the test on COLO 205 colon, 5.24 µM; with HT29 colon, > 36.7 µM; in the test on K-562 leukemia, > 100 µM; in the test on NCI-H522 lung it was 13.9 µM; in the test on OVCAR-4 ovarian, 19.1 µM. The TGI with SF-268 CNS is > 46.5 µM; with SF-295 CNS, > 38.8 µM; in the test with SR leukemia, 8.49 µM; in the test with U251 CNS, > 42.7 µM.
As to `CCN=C(N)CSS(=O)(=O)O`, the TGI in the test with A498 renal, in the test with COLO 205 colon, in the test on HT29 colon, in the test with K-562 leukemia, with NCI-H522 lung and in the test with OVCAR-4 ovarian was > 100 µM in each case. Moreover, the TGI in the test on SF-268 CNS, in the test with SF-295 CNS, in the test with SR leukemia and with U251 CNS was > 100 µM each time.
In the case of `CCN1C(=O)N(CC)C2C1NN=c1s/c(=C\c3ccc([N+](=O)[O-])cc3)c(=O)n12` (stereo not given), the GI50 is 0.172 µM with A498 renal; 0.469 µM with COLO 205 colon; 0.375 µM in the test with HT29 colon; 0.35 µM in the test with K-562 leukemia; 0.323 µM in the test with NCI-H522 lung; 0.744 µM in the test on OVCAR-4 ovarian. Besides, the GI50 in the test with SF-268 CNS was 0.895 µM; in the test on SF-295 CNS, 0.371 µM; with SR leukemia, 0.385 µM; in the test on U251 CNS, 0.506 µM. In addition, the TGI is 0.704 µM in the test with A498 renal; 11.8 µM with COLO 205 colon; > 100 µM in the test with HT29 colon; > 100 µM in the test on K-562 leukemia; 6.94 µM in the test with NCI-H522 lung; 10.5 µM in the test with OVCAR-4 ovarian. The TGI in the test with SF-268 CNS is > 67.7 µM; in the test on SF-295 CNS, > 52.2 µM; in the test on SR leukemia, > 66.4 µM; with U251 CNS, > 100 µM.
In the case of `CNS(=O)(=O)NN(C)S(=O)(=O)c1ccc(C)cc1`, the TGI in the test on A498 renal, with COLO 205 colon, in the test on HT29 colon, in the test on NCI-H522 lung, in the test on OVCAR-4 ovarian and with SF-268 CNS was > 100 µM throughout. For the same molecule, the TGI in the test with SF-295 CNS and in the test with SR leukemia was > 100 µM each time.
Turning to `COC(=O)C1(C)CCc2c(ccc3ccccc23)C1=O` (stereo not given), the TGI was 81 µM with A498 renal; 42.2 µM in the test on COLO 205 colon; > 100 µM in the test on HT29 colon; > 100 µM with K-562 leukemia; 57.3 µM in the test with NCI-H522 lung; > 100 µM in the test with SF-268 CNS. Also, the TGI in the test with SF-295 CNS, with SR leukemia and with U251 CNS was > 100 µM throughout.
For the molecule `NCCCNCCCNc1nc2ccccc2c2[nH]c3ccccc3c12`, the GI50 is 0.995 µM with A498 renal; 0.182 µM with COLO 205 colon; 0.0482 µM in the test on HT29 colon; 0.0578 µM with K-562 leukemia; 0.00716 µM with NCI-H522 lung; 0.198 µM with OVCAR-4 ovarian. Besides, the GI50 in the test on SF-268 CNS was 0.0264 µM; in the test on SF-295 CNS, 0.0664 µM; with SR leukemia, 0.0059 µM; with U251 CNS, 0.0938 µM. In addition, the TGI came out at 2.44 µM in the test on A498 renal; 2.12 µM in the test with COLO 205 colon; 1.86 µM in the test on HT29 colon; 0.563 µM in the test with NCI-H522 lung; 1.39 µM in the test on OVCAR-4 ovarian; 1.72 µM in the test with SF-268 CNS. The TGI stood at 1.61 µM with SF-295 CNS, 1.17 µM in the test on SR leukemia and 1.32 µM in the test on U251 CNS.
For the molecule `CCOC(=O)/C(=C/c1c(-c2ccccc2)[nH]c2ccccc12)C(=O)c1ccc(Cl)cc1`, the GI50 in the test on A498 renal was 8.81 µM; with COLO 205 colon it was 1.98 µM; in the test on HT29 colon, 3.96 µM; in the test on K-562 leukemia, 3.42 µM; in the test with NCI-H522 lung, 5.86 µM; in the test on OVCAR-4 ovarian, 4.82 µM. For the same molecule, the GI50 in the test on SF-268 CNS is 6.06 µM; in the test with SF-295 CNS, 4.2 µM; in the test on SR leukemia, 3.14 µM; with U251 CNS it was 3.85 µM. Besides, the TGI with A498 renal was > 100 µM; in the test with COLO 205 colon it was 4.36 µM; in the test with HT29 colon, > 100 µM; in the test with K-562 leukemia, > 100 µM; with NCI-H522 lung it was > 100 µM; with OVCAR-4 ovarian it was > 100 µM. Besides, the TGI with SF-268 CNS is > 100 µM; in the test with SF-295 CNS, > 100 µM; in the test on SR leukemia, 6.42 µM; with U251 CNS, > 100 µM.
Take `COc1ccc(Nc2nc3c(N)cc(C(F)(F)F)cc3nc2-c2ccccc2)cc1`: the TGI with A498 renal, with COLO 205 colon, in the test with K-562 leukemia, in the test with NCI-H522 lung, in the test on OVCAR-4 ovarian and with SF-268 CNS was > 100 µM in each case. Moreover, the TGI in the test with SF-295 CNS, with SR leukemia and in the test on U251 CNS was > 100 µM throughout.
As for `CC(=O)OCC1OC(n2cnc3c(I)nc(I)nc32)C(OC(C)=O)C1OC(C)=O` (stereo not given), the TGI in the test with A498 renal is 38.3 µM; in the test with HT29 colon, 19.7 µM; in the test with K-562 leukemia, 13.5 µM; with NCI-H522 lung, 3.53 µM; with OVCAR-4 ovarian, 17.4 µM; in the test on SF-268 CNS, 28.5 µM. Further, the results for the TGI in the test on SF-295 CNS, with SR leukemia and in the test with U251 CNS were 35.1 µM, 11.8 µM and 22.9 µM, respectively.
For the molecule `Cc1cc(C)c2c(c1C)CN1CN2Cc2c(C)c(C)cc(C)c21`, the TGI with COLO 205 colon, in the test with HT29 colon, in the test with K-562 leukemia, with NCI-H522 lung, in the test on OVCAR-4 ovarian and with SF-268 CNS was > 100 µM each time. Besides, the TGI with SF-295 CNS, in the test on SR leukemia and in the test on U251 CNS was > 100 µM throughout.
Consider `C=C1C(=O)C23C(O)C1CCC2C12CO[C@]3(O)[C@@H](O)C1C(C)(C)CCC2O` (stereo not given in full), for which the TGI is 36.5 µM in the test on A498 renal; 7.87 µM in the test with COLO 205 colon; 30.3 µM in the test with HT29 colon; > 100 µM in the test on K-562 leukemia; 2.15 µM in the test with NCI-H522 lung; 28.8 µM with SF-268 CNS. Moreover, the TGI in the test with SF-295 CNS is 30.6 µM; with SR leukemia, > 100 µM; with U251 CNS, 32.2 µM.
Turning to `CN(C)CC1CCCC(CN(C)C)C1=O` (stereo not given), the GI50 was 19.1 µM and > 100 µM in the test on A498 renal; 0.119 µM and 0.677 µM with K-562 leukemia; 0.179 µM and 1.06 µM with NCI-H522 lung; 1.89 µM and 7.01 µM with OVCAR-4 ovarian; 11.5 µM and 23.4 µM in the test with SF-268 CNS; 19.3 µM and > 100 µM in the test with SF-295 CNS. For the same molecule, the GI50 with SR leukemia is 0.254 µM and 0.803 µM. For the same molecule, the TGI in the test with A498 renal is 34.5 µM and > 100 µM; in the test with COLO 205 colon, 3.4 µM and 9.47 µM; in the test on K-562 leukemia, 0.601 µM; in the test on NCI-H522 lung, 0.443 µM and 3.46 µM; with OVCAR-4 ovarian, 3.51 µM and 18.5 µM; in the test with SF-268 CNS, 31.7 µM and 65.6 µM. For the same molecule, the TGI in the test on SF-295 CNS is 35.7 µM and > 100 µM; with SR leukemia it was 1.64 µM; in the test on U251 CNS, 23 µM and 34.6 µM.
Turning to `COc1cc(C2c3cc4c(cc3[C@@H](OCCN)[C@H]3COC(=O)C23)OCO4)cc(OC)c1O` (stereo not given in full), the TGI amounted to 1.67 µM in the test with A498 renal; 6.51 µM in the test with COLO 205 colon; 2.69 µM with HT29 colon; 0.596 µM in the test on NCI-H522 lung; 5.79 µM in the test on OVCAR-4 ovarian; 1.48 µM in the test on SF-268 CNS. Further, the results for the TGI in the test on SF-295 CNS, with SR leukemia and in the test on U251 CNS were 0.543 µM, 0.0693 µM and 0.401 µM, respectively.
Turning to `CC(=O)NNc1nc(C)c(C(/C=C/c2ccc3c(c2)OCO3)=N/NC(=O)c2ccncc2)s1`, the TGI in the test with A498 renal, in the test on HT29 colon, in the test on K-562 leukemia, in the test with NCI-H522 lung, in the test on OVCAR-4 ovarian and with SF-268 CNS was > 100 µM each time. The TGI with SF-295 CNS, with SR leukemia and in the test on U251 CNS was > 100 µM throughout.
In the case of `Cc1ccc(S(=O)(=O)OC(C=O)C(O)C(O)COC(c2ccccc2)(c2ccccc2)c2ccccc2)cc1` (stereo not given), the TGI in the test with A498 renal stood at 32.6 µM; in the test on HT29 colon, 24.9 µM; in the test on K-562 leukemia, 35 µM; in the test on NCI-H522 lung, 26.3 µM; in the test on OVCAR-4 ovarian, 32.8 µM; with SF-268 CNS, 35.2 µM. The TGI in the test on SF-295 CNS is 24.8 µM; in the test on SR leukemia, 24.7 µM; with U251 CNS, 27.9 µM.
